ChEMBL document CHEMBL5303573, “Mapping human microbiome drug metabolism by gut bacteria and their genes” (Nature, 2019)

Tests used:
[1] = The drug is tested on Bifidobacterium ruminantium strain: fecal isolate for biotransformation. The drug concentrations were measured before and after a 12-h incubation by liquid-chromatography-coupled mass spectrometry (LC–MS); details: 2 µM
[2] = The drug is tested on Bacteroides dorei strain: DSM17855 for biotransformation. The drug concentrations were measured before and after a 12-h incubation by liquid-chromatography-coupled mass spectrometry (LC–MS); details: phocaeicola dorei, 2 µM
[3] = The drug is tested on Bacteroides finegoldii strain: DSM17565 for biotransformation. The drug concentrations were measured before and after a 12-h incubation by liquid-chromatography-coupled mass spectrometry (LC–MS); details: 2 µM
[4] = The drug is tested on Bacteroides ovatus strain: ATCC8483 for biotransformation. The drug concentrations were measured before and after a 12-h incubation by liquid-chromatography-coupled mass spectrometry (LC–MS); details: 2 µM
[5] = The drug is tested on Bacteroides pectinophilus strain: ATCC43243 for biotransformation. The drug concentrations were measured before and after a 12-h incubation by liquid-chromatography-coupled mass spectrometry (LC–MS); details: 2 µM
[6] = The drug is tested on Bacteroides vulgatus strain: ATCC8482 for biotransformation. The drug concentrations were measured before and after a 12-h incubation by liquid-chromatography-coupled mass spectrometry (LC–MS); details: phocaeicola vulgatus, 2 µM
[7] = The drug is tested on Blautia luti strain: DSM14534 for biotransformation. The drug concentrations were measured before and after a 12-h incubation by liquid-chromatography-coupled mass spectrometry (LC–MS); format: ADME; parameters: dose 2 uM, timepoint 0 vs 12 hours; details: 2 µM
[8] = The drug is tested on Clostridium asparagiforme strain: DSM15981 for biotransformation. The drug concentrations were measured before and after a 12-h incubation by liquid-chromatography-coupled mass spectrometry (LC–MS); format: ADME; parameters: dose 2 uM, timepoint 0 vs 12 hours; details: enterocloster asparagiformis, 2 µM
[9] = The drug is tested on Eubacterium rectale strain: ATCC33656 for biotransformation. The drug concentrations were measured before and after a 12-h incubation by liquid-chromatography-coupled mass spectrometry (LC–MS); details: agathobacter rectalis, 2 µM
[10] = The drug is tested on Ruminococcus torques strain: ATCC27756 for biotransformation. The drug concentrations were measured before and after a 12-h incubation by liquid-chromatography-coupled mass spectrometry (LC–MS); format: ADME; parameters: dose 2 uM, timepoint 0 vs 12 hours; details: 2 µM
[11] = The drug is tested on Enterobacter cancerogenus strain: ATCC35316 for biotransformation. The drug concentrations were measured before and after a 12-h incubation by liquid-chromatography-coupled mass spectrometry (LC–MS); details: 2 µM
[12] = The drug is tested on Providencia stuartii strain: ATCC25827 for biotransformation. The drug concentrations were measured before and after a 12-h incubation by liquid-chromatography-coupled mass spectrometry (LC–MS); details: 2 µM
[13] = bacteroides eggerthii, 12 h, 2 µM
Description: The drug is tested on Bacteroides eggerthii strain: DSM20697 for biotransformation. The drug concentrations were measured before and after a 12-h incubation by liquid-chromatography-coupled mass spectrometry (LC–MS)

[14] = bacteroides stercoris, 12 h, 2 µM
Description: The drug is tested on Bacteroides stercoris strain: ATCC43183 for biotransformation. The drug concentrations were measured before and after a 12-h incubation by liquid-chromatography-coupled mass spectrometry (LC–MS)

[15] = bacteroides thetaiotaomicron, 12 h, 2 µM
Description: The drug is tested on Bacteroides thetaiotaomicron strain: VPI-5482 for biotransformation. The drug concentrations were measured before and after a 12-h incubation by liquid-chromatography-coupled mass spectrometry (LC–MS)

[16] = segatella copri, 12 h, 2 µM
Description: The drug is tested on Prevotella copri strain: DSM18205 for biotransformation. The drug concentrations were measured before and after a 12-h incubation by liquid-chromatography-coupled mass spectrometry (LC–MS)

[17] = enterocloster bolteae, 12 h, 2 µM
Description: The drug is tested on Clostridium bolteae strain: ATCCBAA-613 for biotransformation. The drug concentrations were measured before and after a 12-h incubation by liquid-chromatography-coupled mass spectrometry (LC–MS)

[18] = The drug is tested on Bacteroides sp. WH2 strain: WH2 for biotransformation. The drug concentrations were measured before and after a 12-h incubation by liquid-chromatography-coupled mass spectrometry (LC–MS); details: bacteroides sp. wh2, 12 h, 2 µM
[19] = The drug is tested on Eubacterium hallii strain: DSM3353 for biotransformation. The drug concentrations were measured before and after a 12-h incubation by liquid-chromatography-coupled mass spectrometry (LC–MS); details: anaerobutyricum hallii, 2 µM
[20] = The drug is tested on Odoribacter splanchnicus strain: fecal isolate for biotransformation. The drug concentrations were measured before and after a 12-h incubation by liquid-chromatography-coupled mass spectrometry (LC–MS); details: 2 µM

Row | SMILES | Bacterial Biotransformation [1] | Bacterial Biotransformation [2] | Bacterial Biotransformation [3] | Bacterial Biotransformation [4] | Bacterial Biotransformation [5] | Bacterial Biotransformation [6] | Bacterial Biotransformation [7] | Bacterial Biotransformation [8] | Bacterial Biotransformation [9] | Bacterial Biotransformation [10] | Bacterial Biotransformation [11] | Bacterial Biotransformation [12] | Bacterial Biotransformation [13] | Bacterial Biotransformation [14] | Bacterial Biotransformation [15] | Bacterial Biotransformation [16] | Bacterial Biotransformation [17] | Bacterial Biotransformation [18] | Bacterial Biotransformation [19] | Bacterial Biotransformation [20]
1 | CS(=O)(=O)O.O.O.O.O=C1Cc2cc(CCN3CCN(c4nsc5ccccc45)CC3)c(Cl)cc2N1 [ZIPRASIDONE MESYLATE] | Compound NOT metabolized | Compound NOT metabolized | Compound NOT metabolized | Compound metabolized | Compound NOT metabolized | Compound metabolized | Compound NOT metabolized | Compound NOT metabolized | Compound NOT metabolized | Compound NOT metabolized | Compound NOT metabolized | Compound NOT metabolized | Compound NOT metabolized | Compound NOT metabolized | Compound NOT metabolized | Compound NOT metabolized | Compound NOT metabolized |  |  | 
2 | Nc1c2c(nc3ccccc13)CCCC2 [TACRINE] | Compound NOT metabolized | Compound NOT metabolized | Compound NOT metabolized |  | Compound NOT metabolized | Compound NOT metabolized | Compound NOT metabolized | Compound NOT metabolized | Compound NOT metabolized | Compound NOT metabolized | Compound NOT metabolized | Compound NOT metabolized | Compound NOT metabolized | Compound NOT metabolized | Compound NOT metabolized | Compound NOT metabolized | Compound NOT metabolized | Compound NOT metabolized | Compound NOT metabolized | 
3 | COc1ccc(CN2CCNCC2)c(OC)c1OC.Cl.Cl [TRIMETAZIDINE DIHYDROCHLORIDE] | Compound NOT metabolized | Compound metabolized | Compound NOT metabolized | Compound metabolized | Compound NOT metabolized | Compound metabolized | Compound NOT metabolized | Compound metabolized | Compound NOT metabolized | Compound NOT metabolized | Compound NOT metabolized | Compound NOT metabolized | Compound NOT metabolized | Compound metabolized | Compound metabolized | Compound NOT metabolized | Compound NOT metabolized | Compound metabolized | Compound NOT metabolized | 
4 | CNS(=O)(=O)Cc1ccc2[nH]cc(CCN(C)C)c2c1.O=C(O)CCC(=O)O [SUMATRIPTAN SUCCINATE] | Compound NOT metabolized |  | Compound NOT metabolized |  | Compound NOT metabolized | Compound NOT metabolized | Compound NOT metabolized | Compound NOT metabolized | Compound NOT metabolized | Compound NOT metabolized | Compound metabolized | Compound NOT metabolized | Compound NOT metabolized |  | Compound metabolized | Compound NOT metabolized | Compound NOT metabolized | Compound NOT metabolized | Compound NOT metabolized | Compound NOT metabolized
5 | Cc1ccc(-c2nc3ccc(C)cn3c2CC(=O)N(C)C)cc1 [ZOLPIDEM] | Compound NOT metabolized |  | Compound NOT metabolized |  | Compound NOT metabolized | Compound NOT metabolized | Compound NOT metabolized | Compound NOT metabolized | Compound NOT metabolized | Compound NOT metabolized | Compound NOT metabolized | Compound NOT metabolized |  | Compound NOT metabolized |  | Compound NOT metabolized | Compound NOT metabolized | Compound NOT metabolized | Compound NOT metabolized | Compound NOT metabolized
6 | CCN(C)C(=O)Oc1cccc([C@H](C)N(C)C)c1.O=C(O)C(O)C(O)C(=O)O [RIVASTIGMINE TARTRATE] | Compound NOT metabolized |  | Compound NOT metabolized |  | Compound NOT metabolized |  | Compound NOT metabolized | Compound NOT metabolized | Compound NOT metabolized | Compound NOT metabolized | Compound NOT metabolized | Compound NOT metabolized | Compound NOT metabolized | Compound NOT metabolized | Compound NOT metabolized | Compound NOT metabolized |  | Compound NOT metabolized | Compound NOT metabolized | Compound NOT metabolized
7 | O=C([O-])C[C@H](O)C[C@H](O)/C=C/c1c(C2CC2)nc2ccccc2c1-c1ccc(F)cc1.O=C([O-])C[C@H](O)C[C@H](O)/C=C/c1c(C2CC2)nc2ccccc2c1-c1ccc(F)cc1.[Ca+2] [PITAVASTATIN CALCIUM] | Compound NOT metabolized | Compound NOT metabolized |  | Compound NOT metabolized | Compound NOT metabolized | Compound NOT metabolized | Compound NOT metabolized | Compound NOT metabolized | Compound NOT metabolized | Compound NOT metabolized | Compound NOT metabolized |  | Compound NOT metabolized | Compound NOT metabolized | Compound NOT metabolized | Compound NOT metabolized | Compound NOT metabolized | Compound NOT metabolized | Compound NOT metabolized | Compound NOT metabolized
8 | CC(C)c1nc(N(C)S(C)(=O)=O)nc(-c2ccc(F)cc2)c1/C=C/[C@@H](O)C[C@@H](O)CC(=O)[O-].CC(C)c1nc(N(C)S(C)(=O)=O)nc(-c2ccc(F)cc2)c1/C=C/[C@@H](O)C[C@@H](O)CC(=O)[O-].[Ca+2] [ROSUVASTATIN CALCIUM] | Compound NOT metabolized | Compound NOT metabolized | Compound NOT metabolized |  | Compound NOT metabolized | Compound NOT metabolized | Compound NOT metabolized | Compound NOT metabolized | Compound NOT metabolized | Compound NOT metabolized | Compound NOT metabolized | Compound NOT metabolized | Compound NOT metabolized | Compound NOT metabolized |  |  | Compound NOT metabolized | Compound NOT metabolized | Compound NOT metabolized | 
